# Values of other authors as cited in US7410699B2, “Finely particulate composite containing carbon compound encapsulated in a polymer micelle of a block copolymer” (Japan Science and Technology Agency, priority 2003, dated 2008).
# Conditions: Journal of Colloid and Interface Science, 263, (2003), 1-3
compound,measurement,value
c12c3c4c5c1c1c6c7c2c2c8c3c3c9c4c4c%10c5c5c1c1c6c6c%11c7c2c2c7c8c3c3c8c9c4c4c9c%10c5c5c1c1c6c6c%11c2c2c7c3c3c8c4c4c9c5c1c1c6c2c3c41 [fullerene],water-solubility (amount of solubilized fullerene),21.0 µg/mL
